Test results as given in US10975123B2, “Mutant Akt-specific capture agents, compositions, and methods of using and making” (California Institute of Technology, priority 2014, dated 2021).
pEC50: −log10 of the molar value. Where a SMILES comes first, the peptide text is derived from it. Bridges are numbered along the chain shown (N, C = ends). Roman numbers before positions name the chains, in order. Primed or numbered codes have the meaning given here. Triazole bridges read from a SMILES are 1,4-linked. Where no end group is shown, it is not given here. [ ]: non-standard residue; d: D form. The star is where a group is joined. Biotin = O=C1N[C@H]2[C@H](CS[C@H]2CCCCC(=O)*)N1; Lys(N3) = [N-]=[N+]=NCCCC[C@H](N)C(=O)O; PEG6 = NCCOCCOCCOCCOCCOCCOCCC(=O)O; dPra = C#CC[C@@H](N)C(=O)O; PEG5′ = PEG5 linker

Tests used:
[1] = tested on: E17K Akt1 relative to E17K Akt2; assay: Point ELISA for triligand binding to Akt1 and Akt2 wildtype and E17K mutant; details: protein 100 nM, immobilized triligand, in words
Experimental: These assays were conducted to test the binding of the triligand to the off-target Akt2 wildtype and mutant proteins. For this assay, all samples were taken in triplicate for statistical purposes. Triligand peptide was first immobilized onto neutravdin ELISA plates (Pierce) for one hour. A scrambled anchor peptide, eflya, was used as the no-ligand blank, as the GST proteins has significant background binding to a blank neutravidin plate. The plates were then blocked with 5% BSA overnight. Protein was laid down at a concentration of 100 nM for samples wells and the blank, scrambled peptide wells. GST protein alone (Abcam) was also incubated with the triligand and scrambled peptide as a control. The proteins were incubated for one hour, then washed three times with 1×TBST. The protein was then detected with 1:10,000 anti-GST mouse mAb (Fisher, #MA4-004) for one hour, washed three times with 1×TBST and developed with a 1:1 mixture of TMB substrate for ten minutes. The samples were plotted by subtracting the blanks and averaging the sample wells. The highest signal was considered 100% binding, and the other samples were normalized accordingly.

[2] = biological target: T1, E17K PH Domain binding to PIP3 (Homo sapiens, UniProt P31749, E17K); assay: PIP3 agarose inhibition assay, E17K; type: biochemical; details: in words; for inhibition of E17K PH Domain binding to PIP3-coated resin: ligand 2.38 μM (10x protein), protein 234 nM, western blot; for inhibition of E17K PH Domain binding to PIP3 resin, expanded assay: triligand 0.1-1000 eq relative to protein (234 nM)
T1 construct: 2 μg of either wildtype or mutant PH Domain-GFP protein (234 nM); made in house; host or cells: HEK-293-6E (used as cell lysate, not purified)
Description: (§1) The yleaf ligand, the biligand, and the triligand were all tested for their ability to block the E17K PHD binding with PIP3. For this test, PIP3-coated resin (Echelon Biosciences) was used to mimic the PHD interaction with the cell membrane, and could be used to bind the protein as in an immunoprecipitation assay^22. The presence of an effective blocking compound would reduce the ability of the resin to capture the protein, and would thus appear as a diminished signal in the corresponding western blot assay. A control lane containing no capture agent was used to show baseline binding of the protein to the PIP3 resin. […] In an expanded study, we compared the amount of E17K and WT PH domain binding relative to the amount of added triligand (FIG. 5e).
PIP3 Agarose beads (Echelon) were used to detect for the inhibition of PH Domain binding to its substrate, PIP3, upon incubation with the anchor candidate peptide ligands. To test the inhibition of each of the ligands, anchor biligand and triligand, 20 μL of resin slurry was added to each of four tubes and washed three times with 1×TBS. Protein, 2 μg (234 nM) of E17K mutant, was preincubated for one hour at room temperature with either DMSO (no protein blank), anchor, biligand or triligand at 2.38 μM (10× in relation to protein) in 200 μL of 1×TBS. For the control, mutant PH Domain was incubated with 1×TBS and 1 μL […] to mimic the ligand conditions. These protein samples were then added to PIP3 agarose in a Spin-X tube and incubated at room temperature for two hours. The resin was washed three times with 1×TBS with 0.25% IGEPAL CA-630, spun out to dry completely, then denatured with 50 μL 3×SDS gel loading buffer for 10 min at 95° C. The gel loading buffer was spun out of the resin and detected via western blot as per the Streptavidin-Agarose Pulldowns. Inhibition was indicated by a decrease in the amount of PH Domain that was pulled down by the resin.
(§2) Expanded inhibition blots with either WT of E17K mutant protein were performed in a similar fashion. Twelve tubes of 20 μL of PIP3 agarose were washed three times with 1×TBS. 2 μg of either wildtype or mutant PH Domain-GFP protein (234 nM) in 200 uL 1×TBS were preincubated for 30 minutes with differing concentrations of triligand: 0.1 eq (23.4 nM), 1 eq (234 nM), 10 eq (2.34 μM), 100 eq (23.4 μM), and 1000 eq (234 μM). The protein and triligand solutions were then incubated with the PIP3 resin for 2 hours at room temperature. The resins were washed, eluted, and blotted as per all PH Domain western blots.

[3] = biological target: T2, E17K GST-PH Domain (E17K Akt1) (Homo sapiens, UniProt P31749, E17K); assay: Full curve ELISA, immobilized ligand, E17K protein; type: binding
T2 construct: The first 124 N-terminal amino acids from full length Akt1 were used as the PH Domain DNA; GST (N); thrombin cleavage site (C); 6His (C); made in house; host or cells: E. coli BL21-DE3-pLys
Experimental: The full curve ELISAs were obtained using streptavidin coated ELISA plates (Pierce). The ligands—anchor, biligand, triligand and “eflya” scrambled anchor peptide blank—were laid down at a concentration of 1 μM for one hour. Two lanes of each ligand were used on the plate for both proteins—WT and E17K GST-PH Domain. The plates were blocked with 5% BSA for two hours. Dilutions of both WT and E17K GST-PH Domain proteins were made in 0.5% BSA in 1×TBS starting from 1 μM-0.5 nM by serially diluting 1:2 down a series of 8 samples. For each ligand, a no protein blank was also used. The proteins were incubated with the blocked plate for one hour, washed 3× with 1×TBST+0.5% BSA and tapped dry, then detected with a 1:10,000 dilution of an HRP conjugated anti-GST pAb. The plate was again washed 3× with 1×TBST and tapped dry. It was developed with a 1:1 solution of TMB substrate and development was stopped with 1M H2SO4 and read on a plate reader.

[4] = biological target: T3, WT PH Domain binding to PIP3 (Homo sapiens, UniProt P31749); assay: PIP3 agarose inhibition assay, WT; type: biochemical; details: triligand 0.1-1000 eq relative to protein (234 nM), in words
T3 construct: 2 μg of either wildtype or mutant PH Domain-GFP protein (234 nM); made in house; host or cells: HEK-293-6E (used as cell lysate, not purified)
Description: as §1, §2

T1 sequence (P31749 5-108 E17K limits assumed): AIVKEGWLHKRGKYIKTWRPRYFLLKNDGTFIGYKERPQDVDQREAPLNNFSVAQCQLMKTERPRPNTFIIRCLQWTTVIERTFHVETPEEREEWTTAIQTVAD
T2 sequence (P31749 1-124 E17K): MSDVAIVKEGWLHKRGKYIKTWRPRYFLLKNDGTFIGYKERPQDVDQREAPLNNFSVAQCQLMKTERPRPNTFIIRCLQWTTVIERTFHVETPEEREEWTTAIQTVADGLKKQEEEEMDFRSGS
T3 sequence (P31749 5-108 limits assumed): as the sequence (P31749 5-108 E17K limits assumed) above, with K13E counted along it

| selectivity for E17K Akt1 relative to WT Akt1 (ELISA) ([3]; in words) | pEC50 ([3]; ligand immobilized at 1 μM on streptavidin plate, Hill fit with common saturation and slope, read-out: EC50 for the E17K Akt1 from ELISA binding curves) | inhibition of WT PH Domain binding to PIP3 resin, expanded assay [4] | Compound | preference for E17K Akt1 relative to E17K Akt2 [1] | inhibition of E17K PH Domain binding to PIP3-coated resin [2] | inhibition of E17K PH Domain binding to PIP3 resin, expanded assay [2] | change in binding affinity for the E17K protein versus the preceding ligand (ELISA) ([3]; in words) | selectivity for E17K Akt1 relative to WT Akt1 (ELISA) ([3]; in words, listed as ivdae) |
| --- | --- | --- | --- | --- | --- | --- | --- | --- |
| largely recovered | 7.35 | – | CC[C@@H](C)[C@@H](NC(=O)CCOCCOCCOCCOCCOCCOCCNC(=O)CCCC[C@@H]1SC[C@@H]2NC(=O)N[C@@H]21)C(=O)N[C@@H](C(=O)N[C@H](CC(=O)O)C(=O)N[C@H](C)C(=O)N[C@H](CCC(=O)O)C(=O)N[C@H](Cc1cn(CCCC[C@H](NC(C)=O)C(=O)N[C@H](Cc2ccc(O)cc2)C(=O)N[C@H](CC(C)C)C(=O)N[C@H](CCC(=O)O)C(=O)N[C@H](C)C(=O)N[C@H](Cc2ccccc2)C(=O)N[C@H](Cc2cn(CCCC[C@H](NC(C)=O)C(=O)N[C@H](Cc3ccc(O)cc3)C(=O)N[C@H](CCCCN)C(=O)N[C@H](CO)C(=O)N[C@H](Cc3ccc(O)cc3)C(N)=O)nn2)C(=O)O)nn1)C(=O)O)C(C)C [triligand] (I: Ac-[Lys(N3)][dY][dL][dE][dA][dF][dPra]-OH / II: {Biotin-PEG6}-[dI][dV][dD][dA][dE][dPra]-OH / III: Ac-[Lys(N3)][dY][dK][dS][dY]-NH2; triazole I:1-II:6, I:7-III:1; N-terminus assumed) | slight preference for E17K Akt1 relative to E17K Akt2 | exhibited the ability to block the PHD-PIP3 interaction, with the triligand being the most effective | significant selective inhibition of the E17K mutant relative to the WT | does not show an affinity increase for the E17K protein | maintains the selectivity over the WT protein |
| – | – | little inhibition of this protein | triligand 8: form of the ivdae-yleaf-yksy triligand used in PIP3 inhibition assays (peptide 1 {Biotin-PEG5′}-[dI][dV][dD][dA][dE]; peptide 2 [dY][dL][dE][dA][dF]; peptide 3 [dY][dK][dS][dY]; not fully specified (N-terminus, C-terminus); also: triazole to a chain's N/C-terminus via Pra/Lys(N3), triazole to a chain's N/C-terminus via Pra/Lys(N3)) | – | decreased binding of the protein | significant inhibition | – | – |
